System: HaCaT human keratinocytes
Assay: Affymetrix GeneChip microarray, transcriptional response to β-carotene and/or UVA
Format: cell-based
Description: The cell culture experiments were carried out as described. Briefly, a subclone of passage 65 HaCaT keratinocytes, selected for differentiation capacity, was used at passages 16 to 23 after subcloning. 2×10^5 cells were seeded per 60 millimeter dish. Starting the following day, the cells were pretreated for 2 days with β-carotene at 1.5 μM, a typical concentration in human plasma after moderate dietary supplementation)
β-carotene-containing medium was prepared as follows. Fresh all-E-β-carotene (DSM Nutritional Products, Kaiseraugst, Switzerland) stock solution in THF (containing 0.025% BHT; Fluka Chemie A G, Switzerland) was diluted 1:2 with ethanol and added to cell culture medium to a final concentration of 1.5 μM β-carotene. The solvent concentration in the medium was 0.5% for all treatments. β-carotene-containing medium was prepared fresh for the daily medium changes.
On day 3 of the experiment, the cells were irradiated with a Hönle sun lamp Sol 500 (270 kJ/m^2; Dr. Hönle, Germany).
Five independent, factorially designed cell irradiation experiments were analyzed by microarray hybridization. For each experiment, one chip was hybridized per treatment condition. GeneChip® analysis was done as described in [132], which is incorporated by reference, as if recited in full herein. Gene regulation by β-carotene and/or UVA was calculated relative to placebo.
Changes in gene expression were included in further analysis only if the change factor was […], and if unpaired t-tests yielded p values≦0.05. Upregulations by a […] are labeled bold, downregulations by a change factor of […] are labeled bold italics. (Table 1) To identify the pathways affected by the treatments functional information on the genes was retrieved from public literature databases.

## CC1=C(/C=C/C(C)=C/C=C/C(C)=C/C=C/C=C(C)/C=C/C=C(C)/C=C/C2=C(C)CCCC2(C)C)C(C)(C)CCC1 [β-carotene, All-E-β-carotene]
UVA and β-carotene 1.5 μM
  NCF2; p67-phox; neutrophil oxidase factor (M32011) change factor: −0.16
  NF-κB subunit (S78771) change factor: 0.56
  NF-κB subunit (X61498) change factor: 0.7
  NFκB; p50 (S76638) change factor: 0.55
  NOL1; p120 nucleolar antigen (X55504) change factor: 0.94
  NOTCH3 (U97669) change factor: −1.37
  NOV (X96584) change factor: 0.72
  NOXA (D90070) change factor: 0.74
  NRF1 (L24123) change factor: −0.65
  NRF2, subunit beta 1 (U13045) change factor: −0.11
  OSR1; oxidative-stress responsive 1 (AB017642) change factor: 0.59
  PAR-1; thrombin receptor (M62424) change factor: −0.05
  PAR-2; proteinase activated receptor-2 (U34038) change factor: 1.91
  PAR-2; proteinase activated receptor-2 (U34038, second entry) change factor: 1.34
  PAR-2; proteinase activated receptor-2 (U67058) change factor: 3.32
  PAR-4; protease-activated receptor 4 (AF055917) change factor: −0.57
  RAIDD; death adaptor molecule (U79115) change factor: −0.66
  RB1 (L49229) change factor: −1.13
  RB2/p130 (X74594) change factor: −0.85
  RETSDR1; retinal short-chain dehydrogenase/reductase (AF061741) change factor: −0.06
  RPA; replication protein A 14 kda subunit (rpa) (L07493) change factor: −0.52
  RXRα (U66306) change factor: −0.61
  RXRα (X52773) change factor: −0.57
  Requiem (AF001433) change factor: 0.32
  SMAD 1 (U59423) change factor: −0.57
  SMAD3 (U68019) change factor: 0.01
  SMAD3 (U68019, second entry) change factor: −0.09
  SMAD4 (U44378) change factor: −0.67
  SMAD5 (U59913) change factor: −0.84
  SMAD6 (AF035528) change factor: −24.2
  SMAD7 (AF010193) change factor: −0.63
  SMRT (U37146) change factor: −1.22
  STK15; BTAK (AF011468) change factor: −1.85
  TDAG51; PQ-rich protein; PHLDA1 (Z50194) change factor: 6.19
  TGFβ; transforming growth factor β (X02812) change factor: 0.46
  TIAR; nucleolysin tiar (M96954) change factor: −0.08
  TIEG, EGRα (AF050110) change factor: −0.11
  TLR3; toll-like receptor 3 (U88879) change factor: −0.91
  TOP2; topoisomerase II (J04088) change factor: −0.86
  TRADD; TNF receptor-1 associated protein (L41690) change factor: −0.85
  TRAIL; TNF-related apoptosis inducing ligand (U37518) change factor: −2.66
  TRIP14; ‘2-5’ oligoadenylate synthetase (AJ225089) change factor: 0.67
  TRIP (U77845) change factor: −1.35
  TSSC3 (AF035444) change factor: 0.7
  TSSC3/IPL (AF001294) change factor: 1.02
  VEGF (AF022375) change factor: 0.78
  VEGF (AF024710) change factor: 1.86
  VEGF (M63978) change factor: 1.09
  VEGFR2; VEGF receptor 2; KDR; FLK-1kdr/flk-1 (AF035121) change factor: −0.28
  WEE1 (X62048) change factor: 0.05
  WNT5A (I20861) change factor: −2.22
  WNT5A (I20861, second entry) change factor: −3.34
  XRCC4 (U40622) change factor: −0.01
  bFGF; basic fibroblast growth factor; FGF2 (M27968) change factor: 0.82
  bilirubin udp-glucuronosyltransferase isozyme 2 (M57951) change factor: −0.66
  bullous pemphigoid autoantigen bp180 (M91669) change factor: −0.57
  c-myc (V00568) change factor: 3.22
  c-myc (V00568, second entry) change factor: 2.45
  c-myc binding protein (mbp-1) (M55914) change factor: 0.54
  caspase 2, ICH-1S (U13022) change factor: −0.62
  caspase 7 (U67319) change factor: 0.31
  ceruloplasmin (ferroxidase) (M13699) change factor: 1
  collagen type IV, α-2 (COL4A2) (X05610) change factor: −0.98
  collagen type IV, α-5 (COL4A5) (M58526) change factor: −1.16
  collagen type IV, α-6 (COL4A6) (D21337) change factor: −0.71
  collagen type VII, α-1 (COL7A1) (L02870) change factor: −0.83
  connexin 31 (AF099730) change factor: 2.3
  connexin 45 (U03493) change factor: 0.26
  coproporphyrinogen oxidase (D16611) change factor: −0.7
  cyclin E2 (AF091433) change factor: 0.26
  cyclin E (M73812) change factor: 1.75
  desmocollin type 4 (D17427) change factor: −1.71
  ferritin heavy chain (L20941) change factor: 0.59
  frizzled-2 (I37882) change factor: −1.38
  frizzled-6 (AB012911) change factor: −1.16
  haemochromatosis protein (hla-h) (U60319) change factor: −0.61
  hsp40; heat shock protein 40 (U40992) change factor: −0.07
  integrin α6 (X53586) change factor: −0.76
  integrin α6b (S66213) change factor: −0.46
  integrin α6b (S66213, second entry) change factor: −0.73
  jagged2 (jag2) (AF029778) change factor: −0.67
  keratin 2e (KRT2E); Keratin 2A (AF019084) change factor: −0.69
  keratin 5 (M21389) change factor: 0.81
  keratin 15 (J00124) change factor: 0.96
  keratin 16 (M28439) change factor: −0.38
  keratin 17 (Z19574) change factor: 0.6
  mKI67a mrna (long type) for antigen of monoclonal antibody KI-67 (X65550) change factor: −0.87
  mKI67a mrna (long type) for antigen of monoclonal antibody KI-67 (X65550, second entry) change factor: −1.59
  ornithine decarboxylase (M33764) change factor: 0.57
  ornithine decarboxylase (X16277) change factor: 0.37
  p21; wild-type p53 activated fragment-1 (WAF1) (U03106) change factor: 0.21
  p33; ING1b (AB024401) change factor: 0.64
  p160ROCK (U43195) change factor: −0.55
  protoporphyrinogen oxidase (D38537) change factor: −0.54
  rTS α (X67098) change factor: −0.47
  serpinB1 (M93056) change factor: 0.57
  stimulator of Fe transport (AF020761) change factor: 1.03
  thioredoxin reductase (X91247) change factor: 1.48
  thymidylate synthase (X02308) change factor: −0.56
  transferrin receptor (X01060) change factor: 0.91
  uroporphyrinogen III synthase (J03824) change factor: −0.61
  α topoisomerase truncated-form (L47276) change factor: −0.81
β-carotene 1.5 μM, 5 hours after UVA
  reduction of UVA induction of MMP-10: 30%

Source: patent US20160304957A1, “TREATMENT AND MODULATION OF GENE EXPRESSION AND SKIN AGING” (DSM NUTRITIONAL PRODUCTS LTD., priority 2006, published 2016)
